In general, half-life refers to the time in which the quantity being followed falls by half. Low values mean rapid decline, high ones slow decline. By solubility is commonly meant the dissolved amount per volume that the medium holds.

The values that follow come from publication PMC11997985, “Synthesis and In Vitro Profiling of Psilocin Derivatives: Improved Stability and Synthetic Properties” (Journal of Medicinal Chemistry, 2025).

Series [1] is described as follows: Compounds in pre-precipitated (inactivated) plasma. The format is in vitro ADME, human. The note with it: for % found in incubation plasma at time 0.2 min: peak area in incubation plasma versus pre-precipitated plasma; for degradation in inactivated plasma: plasma pretreated with acetonitrile. As to the method: Materials for experiments described in the supporting information (solubility) […]
Dimethylsulfoxide (DMSO) CHROMASOLV™ Plus, >99.7%
Acetonitrile (MeCN) LiChrosolv, hypergrade for LC-MS, Merck Chemicals
Formic acid (HCOOH) For LC-MS, Carlo-Erba
Water > 18MΩcm quality (Milli-Q, Millipore
Di-sodium-hydrogenphoshate dihydrate Merck
Sodium-dihydrogenphosphate monohydrate Merck
Autosampler Agilent 1260 Multisampler, G7167A
Gradient LC-pump Agilent 1260 Flexible Pump, G7104C
Analytical Flow 0.5 mL/min
Analytical column Luna® Omega 1.6 µm Polar C18 100Å, 50 x 2.1 mm
Injection volume 3.0 µL (15 µL for “high” injection of buffer sample) […]
Mobile phase A H2O/MeCN/Formic acid 95/5/0.1
Mobile phase B H2O/MeCN/Formic acid 5/95/0.1
Materials and analytical parameters for FT-ICR-MALDI-HRMS
The high-resolution mass spectrometry (HR-MS) experiments were performed using a MALDI-Fourier-transform ion cyclotron resonance (FTICR) (7T solariX XR-2ω, Bruker Daltonics) mass spectrometer equipped with a Smartbeam II 2 kHz laser. Briefly, a stock solution (1mg/ml) of the compound 5 was prepared and mixed 1:1 with a matrix solution containing DHB (40 mg/ml) in 50% ACN (0.02% TFA). 1 µl of the mixed solution was spotted onto MPTP MALDI target plate (Bruker Daltonics) and dried at room temperature. The instrument was tuned for optimal detection of small molecules (m/z 86–500) in positive polarity using the quadrature phase detection (QPD) (2ω) mode. The method was calibrated with red phosphorus over the mass range and DHB matrix ion [2M–2H2O+H]+ m/z 273.039364 was used as lock mass. The compound was identified with sub ppm mass accuracy and specific isotopic pattern of boron in its molecular structure.
Incubation samples. 10 mM stock solutions of test compounds in DMSO were used to prepare 100 μM solutions by dilution in EtOH/water 25/75 (v/v). 6 μL of the 100 μM solution was spiked into 594 μL pre-warmed plasma at 37 °C giving a final concentration of 1 μM. The incubation tube was then mixed on a vortex. A sample (60 μL) was taken and added to an Eppendorf tube containing 180 μL acetonitrile. The tube was thoroughly mixed with a vortex. The precipitated sample was then treated with centrifugation (10.000 g, 10 minutes, 18 °C), 150 μL of the supernatant was mixed with 450 μL water directly into a LC-vial (glass). This step was repeated for every time point. The first time point was approximately taken 15-20 seconds after spiking.
Other timepoints were 5,10, 30, 60, 120, 240 minutes. Pre-precipitated samples. 594 μL of pre-warmed plasma was precipitated with 1800 μL ACN. 6 μL of the 100 μM solution was spiked into the precipitated plasma. 1 mL was removed and added to an Eppendorf tube. After a centrifugation step (10.000 g, 10 minutes, 18 °C), 150 μL of the supernatant was mixed with 450 μL water directly into a LC-vial (glass).
Metabolic stability in human microsomes
The assay was run at 37°C with a microsomal protein concentration of 0.5 mg/mL and a compound concentration of 1 μM in a 0.1 M potassium phosphate buffer at pH 7.4. The compounds were added to the microsome suspension whereafter the enzymatic reaction was initiated by the addition of the co-factor NADPH, giving a final NADPH concentration of 1 mM (Table 9). Samples […]
Table S6 Time-dependent decline in concentration of five compounds for in vitro plasma stability in human plasma and […]
Plasma stability. The compounds were incubated separately at a concentration of 1 μM in +37°C pre-warmed pooled human plasma from commercial resources. The incubations were performed over a four-hour period with the first sample taken after addition of the compounds to plasma followed by a thorough mixing, with further sampling at 5, 10, and 30 minutes as well as 1, 2, and 4 hours. The samples were analyzed by LC-MS/MS using relative peak areas for the calculations of the time-dependent […]
Table S7 Comparison of peak area in incubation plasma after addition and mixing with pre-precipitated plasma. […]

Series [2] is described as follows: Co-factor experiment: microsome suspension with and without NADPH. Format: in vitro ADME, human. Particulars: for Co-factor experiment: degradation with and without addition of NADPH compared; for microsomal CLint: human, human microsome suspension, both with and without the addition of NADPH, read-out: intrinsic clearance. The method, boiled down:
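Compounds at 125 nM final were pre-equilibrated ~5 min in microsome suspension, then incubated with or without NADPH and sampled at three time points to test cofactor dependence of degradation. Peak area ~0.25 min after NADPH addition was compared with the same amount in H2O/EtOH (75:25).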

A short description of series [3]: Stability in simulated stomach acid (0.10 M HCl). The note with it: 0.10 M HCl (simulated stomach acid).
For series [4] the following is noted: mice dosed with psilocybin or 4-AcO–DMT; cited from earlier work.
Series [5] can be described thus: Solid solubility assay, phosphate buffer pH 7.4. The note with it: phosphate buffer pH 7.4, dry substance. The format is physicochemical.

For the molecule `CN(C)CCc1c[nH]c2cccc(OCc3ccccc3)c12` [Compound 3, 4-Benzyloxy-N,N-dimethyltryptamine], in series [1], the “% found in incubation plasma at time 0.2 min” value (“% found in incubation plasma” below) came out at 115% and the “degradation in inactivated plasma” value was “fairly stable”. Further, the Co-factor experiment result in series [2] is on record as “No degradation without co-factor”. For the same molecule, in series [3], the half-life at 5 mM is > 167 h.

For `CC(=O)Oc1cccc2[nH]cc(CCN(C)C)c12.O=C(O)/C=C/C(=O)O` [Compound 4a, 4-acetoxy-N,N-dimethyltryptamine], in series [1], the “% found in incubation plasma” value was 9.8% and the “degradation in inactivated plasma” value is “heavily degraded”. Also, in series [2], the Co-factor experiment entry is given as “Degradation without co-factor” and the microsomal CLint was > 200 µL/min/mg. The “psilocin exposure compared with psilocybin” value in series [4] was “nonsignificant difference in psilocin exposure”. In series [3], the half-life at 5 mM is > 167 h.

With `CN(C)CCc1c[nH]c2cccc(OC(=O)C3CC3)c12.O=C(O)/C=C/C(=O)O` [Compound 4g], in series [1], the “% found in incubation plasma” value is on record as 90% and the “degradation in inactivated plasma” value is “fairly stable”. In series [2], the Co-factor experiment result is recorded as “Degradation without co-factor” and the microsomal CLint was > 200 µL/min/mg. Moreover, the half-life at 5 mM in series [3] is > 167 h.

In the case of `CCOC(=O)Oc1cccc2[nH]cc(CCN(C)C)c12.O=C(O)/C=C/C(=O)O` [Compound 4i], in series [1], the “% found in incubation plasma” value is recorded as 17% and the “degradation in inactivated plasma” value is given as “heavily degraded”. Also, in series [2], the Co-factor experiment result is “Degradation without co-factor” and the microsomal CLint is > 200 µL/min/mg. Also, the half-life at 5 mM in series [3] was > 167 h.

For `CN(C)CCc1c[nH]c2cccc(OP(=O)(O)O)c12` [Compound 8, 4-phosphoryloxy-N,N-dimethyltryptamine, reference compound], the solubility at 24 h in series [5] is > 1000 µM. In series [1], the “% found in incubation plasma” value amounted to 67% and the “degradation in inactivated plasma” value is listed as “fairly stable”. The Co-factor experiment result in series [2] is “No degradation without co-factor”. The half-life at 5 mM in series [3] was > 167 h.
